# Assay results published in patent US4359458A, “O-β. -D (and O-α.. -D) Multigalactopyranosyl, xylopyranosyl and glucopyranosyl sulfate salts” (American Cyanamid Company, priority 1981, dated 1982).
# Structures can show the parent of a compound that is named as a salt. Where two headings read alike, the source gives them in different places.
# Tests used:
# [1] = system: complement system; details: Br. J. Exp. Pathol. 33: 327 (1952); cited from earlier work
# [2] = biological target: activated human C1 (Homo sapiens, UniProt P09871); assay: Test Code 026 (C1 inhibitor); assay type: biochemical; details: serial dilution assay, twofold dilutions; higher well number indicates higher activity
# From the text: (§1) An active inhibitor protects C2 from C1 and C4; (ii) Test Code 035 (C3-C9 inhibitor)--This test determines the ability of the late components of human complement (C3-C9) to lyse EAC 142 in the presence of appropriate dilutions of the test compound. An active inhibitor protects EAC 142 from lysis by human C3-C9; (iii) Test Code 036 (C-Shunt inhibitor)--In this test human erythrocytes rendered fragile are lysed in autologous serum via the shunt pathway activated by cobra venom factor in the presence of appropriate dilutions of the test compound. Inhibition of the shunt pathway results in failure of lysis; (iv) Cap 50 Test--Here, appropriate amounts of the test compound are added to a pool of guinea pig serum in vitro, after which the undiluted serum capillary tube assay of U.S. Pat. No. 3,876,376 is run. The concentration of compound inhibiting 50% is reported; and (v) Guinea Pig Intraperitoneal Test (GPIP)--Guinea pigs weighing about 300 g are dosed intraperitoneally (i.p.) with 200 mg/kg of the test compound dissolved in saline and adjusted to pH 7-8. Approximately 0.4 ml blood samples, taken by orbital sinus puncture 30 minutes and one hour after injections, are collected directly into centrifuge tubes; 5 ml blood samples, taken by decapitation 2 hours after injection are collected directly into beakers. The samples are allowed to clot, centrifuged, and the resultant sera are assayed for complement activity using the capillary complement assay. Percent inhibition is calculated by comparison with simultaneous controls. The results of the GPIP appear in Table I together with results of test code 026, 035, 036 and Cap 50.
# [3] = system: complement activity; assay: Guinea Pig Intraperitoneal Test (GPIP); assay type: in vivo; details: Cavia porcellus, ip, 200 mg/kg i.p.
# From the text: as §1
# [4] = system: shunt pathway activated by cobra venom factor; assay: Test Code 036 (C-Shunt inhibitor); assay type: cell-based, human; details: serial dilution assay, twofold dilutions; higher well number indicates higher activity; N = Negative
# From the text: as §1
# [5] = system: hereditary angioneurotic edema; details: literature reports; cited from earlier work
# [6] = system: total hemolytic complement activity; details: both in vitro and in vivo; judged by reduction in total hemolytic complement activity; cited from earlier work
compound,measurement,setting,value
"Nc1ccc2cc(S(=O)(=O)O)cc(O)c2c1N=Nc1ccc(NC(=O)Nc2ccc(N=Nc3c(N)ccc4cc(S(=O)(=O)O)cc(O)c34)c(S(=O)(=O)O)c2)cc1S(=O)(=O)O [chlorazol fast pink, 3,3'-ureylenebis [6-(2-amino-8-hydroxy-6-sulfo-1-naphthylazo)benzenesulfonic acid], tetrasodium salt]",anti-complementary effect,[1],anti-complementary effect
"O=S(=O)(O)O[C@@H]1[C@@H](OS(=O)(=O)O)[C@@H](O[C@H]2O[C@H](CO[C@@H]3OC[C@@H](OS(=O)(=O)O)[C@H](OS(=O)(=O)O)[C@H]3OS(=O)(=O)O)[C@@H](OS(=O)(=O)O)[C@H](OS(=O)(=O)O)[C@H]2OS(=O)(=O)O)O[C@H](CO[C@@H]2OC[C@@H](OS(=O)(=O)O)[C@H](OS(=O)(=O)O)[C@H]2OS(=O)(=O)O)[C@H]1OS(=O)(=O)O [drawing 14, Xyl 1β,6 glc 1α,1α' glc 1β,6 xyl, dodecakis (H-sulfate), dodecasodium salt]",Cl 026 Wells,[2],11 Wells
same,inhibition at 200 mg/kg,"[3]; 0.5 h, serum 30 minutes after injection, read-out: In vivo activity (Guinea Pigs) % Inhibition Intraperitoneal, 30 minutes",57%
same,inhibition at 200 mg/kg,"[3]; 1 h, serum 60 minutes after injection, read-out: In vivo activity (Guinea Pigs) % Inhibition Intraperitoneal, 60 minutes",69%
same,inhibition at 200 mg/kg,"[3]; 2 h, serum 120 minutes after injection, read-out: In vivo activity (Guinea Pigs) % Inhibition Intraperitoneal, 120 minutes",78%
same,C-Shunt Inhibition 036 Wells,[4],4 Wells
NCCCCCC(=O)O [epsilon-aminocaproic acid],treatment of hereditary angioneurotic edema,[5],used with success
NC[C@H]1CC[C@H](C(=O)O)CC1 [tranexamic acid],treatment of hereditary angioneurotic edema,[5],used with success
heparin,anti-complementary effect,[1],anti-complementary effect
pentosanpolysulfoester,anticomplementary activity on human serum,[6],anticomplementary activity
